# Experimental data reported in paper PMC7478165, “Derivatisation of parthenolide to address chemoresistant chronic lymphocytic leukaemia” (MedChemComm, 2019).
# System: MEC1 CLL cell line
# Assay: cells
# Parameters: alamarBlue (resazurin reduction) viability assay in MEC1 CLL cells
# Conditions: Homo sapiens, MEC1, 24 h; read-out: alamarBlue EC50 (uM) average
# Description: Defective p53-signalling increases genomic instability and drives tumour progression. A high frequency of p53 inactivation is found in relapsed, treatment-resistant, high risk CLL.[30] […] Owing to resource availability a subset of up to ten of these compounds was prioritised for further investigation. Compounds 2d, 2e, 2j, 2aa, 5a, 5d, 5e, 5f, 5ab and 6b were selected on the basis of reasons including ease of synthetic access, diversity across the chemical space probed and novelty. Those prepared under conditions (i)Scheme 1 (2d, 5a and 6b) were available on a scale and in a purity to directly permit follow-up studies, whereas compounds prepared under conditions (ii)Scheme 1 were prepared on a small scale so were resynthesised. These seven compounds (2e, 2j, 2aa, 5d, 5e, 5f and 5ab) were isolated on >30 mg scale in high purity and progressed to more following studies. Biological efforts at Sygnature Discovery (where differing to University of Birmingham) MEC1 cells were obtained from the American Type Culture Collection (Manassas, VA 20110 USA) and were routinely cultured in RPMI 1640 medium (Sigma-Aldrich) supplemented with 1% L-glutamine (Sigma-Aldrich), 1% Penicillin/Streptomycin (Sigma-Aldrich) and 10% FBS (Gibco). The MEC1 proliferation assay was conducted by performing a re-feed of the MEC1 cells 24 h prior to cell seeding. On the day of the assay, cells were seeded into a 384-well assay plate at a density of 12,500 cells/well in 25 μL of complete MEC1 medium. Compound treatment was performed on the day of cell seeding, with compounds prepared as duplicate compound response curves (final DMSO concentration of 0.6%). Post compound treatment, MEC1 assay plates were returned to a 37 °C/5% CO2 incubator for 24 h of incubation. Following compound treatment, cellular viability was determined by measuring reduction of alamarBlue® reagent (Invitrogen). alamarBlue® reagent (2.5 μL) was added to each assay well to give a 1:10 dilution of the neat stock and assay plates were incubated for 3 h at 37 °C/5% CO2. Reduction of alamarBlue® was determined using an Envision Xcite plate reader (Perkin Elmer) with an excitation wavelength of 560 nm set and an emission wavelength of 590 nm set. Cell viability was determined by normalising raw fluorescent data to a cell only high control and Parthenolide treated low control to provide percentage viability readout. Data was plotted and EC50 values extracted and reported EC50s represent an average of at least two independent assays.
row,Compound,EC50 [µM]
1,CC1=CCCC2(C)OC2C2OC(=O)C(CN(C)C(C)C)C2CC1 (centres unmarked) [2b],> 30
2,CC1=CCCC2(C)OC2C2OC(=O)C(CN(C)CCO)C2CC1 (centres unmarked) [2c],5.2
3,CC1=CCCC2(C)OC2C2OC(=O)C(CN(C)Cc3ccc(Cl)cc3)C2CC1 (centres unmarked) [2h],18.3
4,CCOc1cccc(CN(CCO)CC2C(=O)OC3C2CCC(C)=CCCC2(C)OC32)c1 (centres unmarked) [2i],19.2
5,CC1=CCCC2(C)OC2C2OC(=O)C(CN(C)Cc3n[nH]c4c3CCCCC4)C2CC1 (centres unmarked) [2k],19.3
6,CCN(Cc1cc(Cl)ccc1OC)CC1C(=O)OC2C1CCC(C)=CCCC1(C)OC21 (centres unmarked) [2l],19.8
7,CC1=CCCC2(C)OC2C2OC(=O)C(CN(C)Cc3nnc(-c4ccccc4)o3)C2CC1 (centres unmarked) [2n],> 30
8,CC1=CCCC2(C)OC2C2OC(=O)C(CN(C)Cc3cccc(C(F)(F)F)c3)C2CC1 (centres unmarked) [2p],> 30
9,CC1=CCCC2(C)OC2C2OC(=O)C(CN(C)Cc3nc(-c4ccccn4)no3)C2CC1 (centres unmarked) [2q],> 30
10,CC1=CCCC2(C)OC2C2OC(=O)C(CN(Cc3sccc3C)C3CC3)C2CC1 (centres unmarked) [2r],> 30
11,CCCc1nc(CN(CC)CC2C(=O)OC3C2CCC(C)=CCCC2(C)OC32)no1 (centres unmarked) [2s],> 30
12,CC1=CCCC2(C)OC2C2OC(=O)C(CN(Cc3ccco3)Cc3cccs3)C2CC1 (centres unmarked) [2t],> 30
13,CC1=CCCC2(C)OC2C2OC(=O)C(CN(Cc3ccncc3)Cc3ccc4c(c3)OCO4)C2CC1 (centres unmarked) [2u],> 30
14,CC1=CCCC2(C)OC2C2OC(=O)C(CN(C)Cc3nc4cc(C)c(C)cc4[nH]3)C2CC1 (centres unmarked) [2y],> 30
15,CC1=CCCC2(C)OC2C2OC(=O)C(CNCCO)C2CC1 (centres unmarked) [4a],19
16,CC1=CCCC2(C)OC2C2OC(=O)C(CNCc3ccc(F)cc3C(F)(F)F)C2CC1 (centres unmarked) [4aa],> 30
17,CC1=CCCC2(C)OC2C2OC(=O)C(CNCc3c(F)cccc3C(F)(F)F)C2CC1 (centres unmarked) [4ab],> 30
18,CC1=CCCC2(C)OC2C2OC(=O)C(CNCc3ccc(Cl)cc3Cl)C2CC1 (centres unmarked) [4ac],> 30
19,CC1=CCCC2(C)OC2C2OC(=O)C(CNCc3c(F)cccc3Cl)C2CC1 (centres unmarked) [4ad],> 30

row,Compound,EC50 [µM]
1,COCCNCC1C(=O)OC2C1CCC(C)=CCCC1(C)OC21 (centres unmarked) [4b],> 30
2,CC1=CCCC2(C)OC2C2OC(=O)C(CNCc3ccccc3)C2CC1 (centres unmarked) [4c],20.4
3,C#CCNCC1C(=O)OC2C1CCC(C)=CCCC1(C)OC21 (centres unmarked) [4d],> 30
4,CC1=CCCC2(C)OC2C2OC(=O)C(CNCC3CCOCC3)C2CC1 (centres unmarked) [4f],23.3
5,CC1=CCCC2(C)OC2C2OC(=O)C(CNCCOc3cccc(C)c3)C2CC1 (centres unmarked) [4h],21.9
6,CC1=CCCC2(C)OC2C2OC(=O)C(CNCc3ccc(Cl)cc3F)C2CC1 (centres unmarked) [4i],> 30
7,COc1ccc(-c2noc(CNCC3C(=O)OC4C3CCC(C)=CCCC3(C)OC43)n2)cc1OC (centres unmarked) [4k],> 30
8,CC1=CCCC2(C)OC2C2OC(=O)C(CNCc3c(F)cc(F)cc3F)C2CC1 (centres unmarked) [4l],> 30
9,CC1=CCCC2(C)OC2C2OC(=O)C(CNCc3ccco3)C2CC1 (centres unmarked) [4m],> 30
10,CC1=CCCC2(C)OC2C2OC(=O)C(CNCc3ccc(N(C)C)cc3)C2CC1 (centres unmarked) [4n],> 30
11,COc1ccccc1CNCC1C(=O)OC2C1CCC(C)=CCCC1(C)OC21 (centres unmarked) [4p],> 30
12,CC1=CCCC2(C)OC2C2OC(=O)C(CNCc3ccccc3N(C)C)C2CC1 (centres unmarked) [4q],> 30
13,CC1=CCCC2(C)OC2C2OC(=O)C(CNCC(C)(C)N3CCOCC3)C2CC1 (centres unmarked) [4r],> 30
14,CC1=CCCC2(C)OC2C2OC(=O)C(CNCCc3nccs3)C2CC1 (centres unmarked) [4s],> 30
15,CC1=CCCC2(C)OC2C2OC(=O)C(CNCc3c(Cl)cccc3Cl)C2CC1 (centres unmarked) [4t],> 30
16,CC1=CCCC2(C)OC2C2OC(=O)C(CNCc3ccccc3C(F)(F)F)C2CC1 (centres unmarked) [4u],> 30
17,CC1=CCCC2(C)OC2C2OC(=O)C(CNCc3ccc(C(F)(F)F)cc3)C2CC1 (centres unmarked) [4v],> 30
18,CC1=CCCC2(C)OC2C2OC(=O)C(CNCc3ccc(OC(F)(F)F)cc3)C2CC1 (centres unmarked) [4w],> 30
19,CC1=CCCC2(C)OC2C2OC(=O)C(CNCc3ccccc3OC(F)(F)F)C2CC1 (centres unmarked) [4x],> 30

row,Compound,EC50 [µM]
1,CC1=CCCC2(C)OC2C2OC(=O)C(CNCc3cccc(OC(F)(F)F)c3)C2CC1 (centres unmarked) [4y],> 30
2,CC1=CCCC2(C)OC2C2OC(=O)C(CNCc3c(F)cccc3F)C2CC1 (centres unmarked) [4z],> 30
3,CC1=CCCC2(C)OC2C2OC(=O)C(CN3CCCCC3)C2CC1 (centres unmarked) [5b],7.8
4,CC1=CCCC2(C)OC2C2OC(=O)C(CN3CCN(C)CC3)C2CC1 (centres unmarked) [5c],> 30
5,CC1=CCCC2(C)OC2C2OC(=O)C(CN3CCC4(CC3)OCCO4)C2CC1 (centres unmarked) [5g],15.2
6,CCCC1CCN(CC2C(=O)OC3C2CCC(C)=CCCC2(C)OC32)CC1 (centres unmarked) [5i],22.2
7,COCCN1CCN(CC2C(=O)OC3C2CCC(C)=CCCC2(C)OC32)CC1 (centres unmarked) [5j],19.5
8,CC1=CCCC2(C)OC2C2OC(=O)C(CN3CCC(N4CCc5ccccc5C4)CC3)C2CC1 (centres unmarked) [5k],16.3
9,CC1=CCCC2(C)OC2C2OC(=O)C(CN3CCN(c4ncccn4)CC3)C2CC1 (centres unmarked) [5m],24.8
10,CC1=CCCC2(C)OC2C2OC(=O)C(CN3CCN(Cc4cccc(C)c4)C(=O)C3)C2CC1 (centres unmarked) [5o],> 30
11,CC1=CCCC2(C)OC2C2OC(=O)C(CN3CCC(C#N)(c4ccccc4)CC3)C2CC1 (centres unmarked) [5p],> 30
12,CC1=CCCC2(C)OC2C2OC(=O)C(CN3CCC(N4CCCCC4)CC3)C2CC1 (centres unmarked) [5r],> 30
13,CC1=CCCC2(C)OC2C2OC(=O)C(CN3CCN(C(C)(C)C)CC3)C2CC1 (centres unmarked) [5s],> 30
14,CC1=CCCC2(C)OC2C2OC(=O)C(CN3CCN(CCc4cccs4)CC3)C2CC1 (centres unmarked) [5t],> 30
15,CC1=CCCC2(C)OC2C2OC(=O)C(CN3CCN(CC4CCCCC4)CC3)C2CC1 (centres unmarked) [5u],> 30
16,CC1=CCCC2(C)OC2C2OC(=O)C(CN3CCn4c(nnc4C(F)(F)F)C3)C2CC1 (centres unmarked) [5v],> 30
17,CCCCN1CCN(CC2C(=O)OC3C2CCC(C)=CCCC2(C)OC32)CC1 (centres unmarked) [5x],> 30
18,CC1=CCCC2(C)OC2C2OC(=O)C(CSCCO)C2CC1 (centres unmarked) [compound 3],> 30
